Where two headings read alike, the source gives them in different places.
What was measured:
Human PTP1B = molecular target: T1, Human PTP1B (Homo sapiens, UniProt P18031); assay: In vitro phosphatase activity assay (DiFMUP assay); format: biochemical
T1 construct: His6 (N); made in house; host or cells: E. coli BL21 DE3
T1 sequence (P18031 1-435): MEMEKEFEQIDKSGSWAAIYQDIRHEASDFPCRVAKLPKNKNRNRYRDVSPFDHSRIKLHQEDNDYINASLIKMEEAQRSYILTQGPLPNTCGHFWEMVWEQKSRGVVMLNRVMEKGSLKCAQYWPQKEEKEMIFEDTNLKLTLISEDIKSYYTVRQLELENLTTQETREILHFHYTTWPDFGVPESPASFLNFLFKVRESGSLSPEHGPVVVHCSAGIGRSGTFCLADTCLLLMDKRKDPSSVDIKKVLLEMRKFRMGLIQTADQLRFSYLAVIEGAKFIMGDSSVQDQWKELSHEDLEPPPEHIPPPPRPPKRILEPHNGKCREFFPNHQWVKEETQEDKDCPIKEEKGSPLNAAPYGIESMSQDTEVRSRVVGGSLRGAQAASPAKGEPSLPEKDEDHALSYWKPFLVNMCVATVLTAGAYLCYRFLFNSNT
Source text: To determine the value of CHBOs in drug discovery, we constructed a synthetically accessible library of CHBOs based on the substrate scope of the reaction we newly developed. […] To explore the relationship between inhibitor activity of 3ak against PTP1B and the stereochemistry, two enantiomers (S, S)-3ak and (R, R)-3ak were synthesized and evalutated in the DiFUMP assay (Figure a). […]
Protein expression and purification7: Human PTP1B construct was subcloned into pET28a(+) vector, which contains an N-terminal His6-tag. BL21 DE3 E. coli cells were transformed as follows: 2 µL of plasmid(100 ng/µL) and 200 µL of DE3 cells were incubated for 30 min on ice, a 45 second heat shock at […], 2 min on ice, recovery with 800 µL SOC for 1 h at 37 ℃ followed by plating on a Kanamycin agar plate (50µg/mL).One colony was picked and used to inoculate 10 mL of LB media supplemented with kanamycin (50µg/mL).When the culture reached OD600 = 0.6, 10mL were transferred to one liter of LB media supplemented with Kanamycin (50 µg/mL) and grown at 37 ℃ to an OD600 = 0.6. Media is transferred to a 16 ℃ incubator. Then, the media was supplemented with 500 µM Isopropyl β-D-1-thiogalactopyranoside (IPTG) at OD600 = 0.8 and incubated for 16 h. Cells were centrifuged (4000 rpm, 20 min) and liquid was decanted. Cells were resuspended in lysis buffer (50 mM HEPES, pH 7.4, 150 mM KCl, 5 mM MgCl2, 5% glycerol, 1 mM phenylmethane sulfonyl fluoride (PMSF), 2 mM 2-mercaptoethanol (β-met)). Cells were lysed in a cell crusher (pressure 1000 bar), the mixed products were collected, centrifuged (12000 rpm, 4°C, 20 min), and the supernatant was left to discard the precipitate. The nickel column was first equilibrated with equilibration solution, and then the protein supernatant was up-sampled twice to bind the protein. The proteins were then gradually eluted with imidazole (10, 20, 60, 200 mM imidazole).
The target protein-containing fractions confirmed by SDS PAGE were placed in […] MWCO protein ultrafiltration tubes and the imidazole were replaced with dialysis buffer (20 mM HEPES, 150 mM KCl, 1 mM MgCl2). After the imidazole was removed cleanly, an equal volume of glycerol was added as a protective solution. When concentration was determined to be greater than or equal to 1 mg /mL, protein was frozen with liquid nit rogen. Protein was then stored in a -80 ℃ freezer.
In Vitro Phosphatase Activity Assays8:Incubate 1 nM purified PTP1B protein with positive control or compound to be tested in reaction buffer (25 mM Bis-Tris propane pH 7.5, […]
50 mM NaCl, 2 mM EDTA, 2 mM DTT) for 10 min at 37°C in a total volume of 90 μL. Add 10 μL of substrate buffer containing DiFMUP (final concentration of 10 μM) to the reaction buffer […]
(§1) The fluorescence intensity at 455 nm was read using a multifunctional reader with 358 nm as the excitation light, and the measured fluorescence value was used to calculate the inhibition rate of the enzyme activity by the sample over the value of the blank wells. The IC50 values of the compounds were calculated by Graphpad Prism 7.0, using a non-linear fit of the inhibition rate to the concentration of the inhibitor. […]

MB231 cells = assay: Cellular anti-cancer immunity assay (cancer cell growth inhibition with or without IFNγ, CCK8); format: cell-based; conditions: MB231 cell line; 0.5 ng/ml IFNγ or medium alone; 3 days
Source text: We further evaluated (S, S)-3ak with a cellular anticancer immunity assay. The assay measures the inhibition of cancer cell growth by compounds with or without cytokine IFNγ. , The synergy of testing compounds and IFNγ in inhibiting cancer cells implicates the testing compound contributes anticancer immunity. The synergy index is defined by the formula index = (IC50 ^IFNγ– – IC50 ^IFNγ+)/IC50 ^IFNγ+. […] In other words, we identified (S, S)-3ak as a promising PTP1B inhibitor, preparing for the coming hit-lead-candidate optimization.
as §1, with “50 mM NaCl, 2 mM EDTA, 2 mM DTT) for 10 min at 37°C in a total volume of 90 μL. […] The fluorescence” for “The fluorescence”
Cellular anti-cancer immunity assay9: MB231 cells were seeded at a density of 5000 cells per well in a 96-well plate and incubated at 37 °C. […] PTP1B inhibitors, including Osunprotafib as the positive control, were added, and cell confluence was monitored for 3 days. […]

[1] = PTP1B lC50 (μM), DiFMUP assay at room temperature, positive control ABBV-CLS-484, negative control DMSO
[2] = DiFMUP assay at room temperature, positive control ABBV-CLS-484, negative control DMSO
[3] = DiFMUP assay at room temperature, positive control ABBV-CLS-484, negative control DMSO, read-out: PTP1B lC50

## CC1CCC(C(C)C)C(OC(=O)c2ccc(C3=C(c4ccccc4)C(=O)OC3C3(O)C(=O)Nc4ccccc43)cc2)C1 (stereo not drawn) [6au]
Human PTP1B
  IC50: 0.29 to 1.58 µM
Human PTP1B; [1]
  IC50: 1.56 ± 0.24 µM

## O=C1O[C@@H]([C@@]2(O)C(=O)N(Cc3ccccc3)c3ccccc32)C=C1c1ccccc1 [6a]
Human PTP1B
  IC50: 10 to 30 µM
Human PTP1B; [1]
  IC50: 29.7 ± 0.56 µM

## O=C1O[C@@H]([C@@]2(O)C(=O)N(Cc3ccccc3)c3cccc(Cl)c32)C=C1c1ccccc1 [6d]
Human PTP1B
  IC50: 10 to 30 µM
Human PTP1B; [1]
  IC50: 17.8 ± 1.2 µM

## O=C1O[C@@H]([C@@]2(O)C(=O)Nc3ccccc32)C=C1c1ccccc1 [6b]
Human PTP1B; [2]
  PTP1B lC50: 6.93 ± 0.77 µM

## Cc1ccc(C2=C[C@H]([C@@]3(O)C(=O)N(Cc4ccccc4)c4ccccc43)OC2=O)cc1 [6ab]
Human PTP1B; [3]
  IC50: 6.68 ± 0.88 µM

## COc1ccc2c(c1)[C@@](O)([C@H]1C=C(c3ccccc3)C(=O)O1)C(=O)N2Cc1ccccc1 [6l]
Human PTP1B; [2]
  PTP1B lC50: 21.65 ± 1.48 µM

## Cc1ccc2c(c1)C(O)(C1C=C(c3ccccc3)C(=O)O1)C(=O)N2Cc1ccccc1 (stereo not drawn) [6k]
Human PTP1B; read-out: PTP1B lC50, DiFMUP assay at room temperature, positive control ABBV-CLS-484, negative control DMSO
  IC50: 9.08 ± 0.12 µM

## O=C1OC(C2(O)C(=O)N(Cc3ccccc3)c3cccc(Br)c32)C=C1c1ccc2c(c1)OCO2 (stereo not drawn) [6ah]
Human PTP1B
  IC50: 0.29 to 1.58 µM
Human PTP1B; [1]
  IC50: 0.92 ± 0.18 µM

## O=C1O[C@@H]([C@@]2(O)C(=O)N(Cc3ccccc3)c3cccc(I)c32)C=C1c1ccccc1 [6f]
Human PTP1B; [2]
  PTP1B lC50: 8.17 ± 1.06 µM

## COc1ccc(C2=C[C@H]([C@@]3(O)C(=O)N(Cc4ccccc4)c4cccc(Br)c43)OC2=O)cc1OC [6ai]
Human PTP1B; [2]
  PTP1B lC50: 22.65 ± 0.75 µM

## O=C1O[C@@H]([C@@]2(O)C(=O)N(Cc3ccccc3)c3ccc(Cl)c(Cl)c32)C=C1c1ccccc1 [6i]
Human PTP1B; [3]
  IC50: 3.02 ± 0.22 µM

## O=C1O[C@@H]([C@@]2(O)C(=O)N(Cc3ccccc3)c3ccc(Cl)cc32)C=C1c1ccccc1 [6j]
Human PTP1B; [2]
  PTP1B lC50: 15.17 ± 1.02 µM

## O=C1O[C@@H]([C@@]2(O)C(=O)N(Cc3ccccc3)c3cccc(Br)c32)C=C1c1ccc2ccccc2c1 [(R, R)-3ak]
Human PTP1B
  IC50: 3.31 ± 0.2 µM

## COc1ccc(C2=C[C@H]([C@@]3(O)C(=O)N(Cc4ccccc4)c4ccccc43)OC2=O)cc1 [6ad]
Human PTP1B; [2]
  PTP1B lC50: 7.82 ± 1.44 µM

## O=C1O[C@@H]([C@@]2(O)C(=O)Nc3ccccc32)C(c2ccccc2)=C1c1ccccc1 [6am]
Human PTP1B; [2]
  PTP1B lC50: 4.03 ± 0.45 µM

## Cc1ccc(C2=C[C@H]([C@@]3(O)C(=O)N(Cc4ccccc4)c4cccc(Br)c43)OC2=O)cc1 [6ac]
Human PTP1B; [2]
  PTP1B lC50: 9.13 ± 0.62 µM

## COc1ccc2c(c1)N(Cc1ccccc1)C(=O)[C@]2(O)[C@H]1C=C(c2ccccc2)C(=O)O1 [6p]
Human PTP1B; [2]
  PTP1B lC50: 8.23 ± 0.91 µM

## O=C1O[C@@H]([C@@]2(O)C(=O)N(Cc3ccccc3)c3cccc(Br)c32)C=C1c1ccccc1 [6e]
Human PTP1B; [3]
  IC50: 2.1 ± 0.31 µM

## O=C1O[C@H]([C@]2(O)C(=O)N(Cc3ccccc3)c3cccc(Br)c32)C=C1c1ccc2ccccc2c1 [(S, S)-3ak]
Human PTP1B
  IC50: 0.81 ± 0.1 µM
Human PTP1B; DiFMUP assay
  potency relative to the enantiomer (R, R)-3ak: 3 fold
Human PTP1B; DiFMUP assay, values in text and figure
  IC50 against PTP1B: submicromolar
MB231 cells
  synergy index = (IC50 IFNγ− – IC50 IFNγ+)/IC50 IFNγ+: 3.49

## O=C1O[C@@H]([C@@]2(O)C(=O)N(Cc3ccc(C(=O)NC45CC6CC(CC(C6)C4)C5)cc3)c3cccc(Br)c32)C=C1c1ccccc1 [6s]
Human PTP1B; [2]
  PTP1B lC50: 2.11 ± 0.22 µM

## Cc1ccc2c(c1Br)[C@@](O)([C@H]1C=C(c3ccccc3)C(=O)O1)C(=O)N2Cc1ccccc1 [6g]
Human PTP1B; [2]
  PTP1B lC50: 8.13 ± 0.06 µM

## COc1ccc(C2=C[C@H]([C@@]3(O)C(=O)N(Cc4ccccc4)c4cccc(Br)c43)OC2=O)cc1 [6ae]
Human PTP1B; [2]
  PTP1B lC50: 11.17 ± 2.87 µM

## CC1(C)[C@H]2CC=C(CCOC(=O)c3ccc(CN4C(=O)[C@](O)([C@H]5C=C(c6ccccc6)C(=O)O5)c5c(Br)cccc54)cc3)[C@@H]1C2 [6u]
Human PTP1B; [2]
  PTP1B lC50: 0.29 ± 0.02 µM
